Data set [1] can be described thus: Solubility determination in water (HPLC-MS of saturated aqueous solutions). The class given is physicochemical. To be noted: for Solubility: in water, ambient temperature, after 24 hours, not at equilibrium, supernatant by HPLC-MS, LOD 10 ng/mL. As for the experimental part:
The drug solubility of a sample of each of crystal Form I and Form II and two samples of Form III (obtained from drying of Form I and Form II) was evaluated in water using an HPLC-MS method (High performance liquid chromatography apparatus coupled to a mass spectrometer). Saturated aqueous solutions of the crystals were stirred and kept at ambient temperature for 24 hours. Solutions were centrifuged at 3600 rpm and an aliquot of supernatant was analyzed by HPLC-MS.

The nature of data set [2]: Thermal treatment (annealing/drying) of crystals, check for decomposition. The class given is physicochemical. To be noted: heated at 60, 70, 80, 90 or 100° C. under air atmosphere; by 1H NMR, TGA, XRPD and solubility. As to the method: Crystal Form III was produced by annealing of either Form I or Form II crystals using a variety of temperatures and under various conditions such as air or inert atmosphere or under reduced pressure.
A sample of Compound 1 crystals of Form II (1 mg to 30 g) was dried for 6 hours in an oven at an isothermal 60° C. temperature under reduced pressure (1-4 Torr) using an Edwards RV8 pump (or in a vacuum oven). Sample was allowed to cool to room temperature and crystal Form III obtained was analyzed as described in Examples 3, 4, 5 and 6.
Annealing process was done above the temperature of solvent elimination. No degradation was observed up to 160° C. when crystals were annealed under nitrogen or under reduced pressure. Annealing was also shown to proceed slowly at temperatures as low as 50° C.
As an example, when temperatures of 60, 70 and 90° C. were used, subsequent DSC analysis gave melting points respectively of 185.5, 184.5 and 183.4° C., and a mass enthalpy respectively of 84.6, 66.8 and 64.9 J/g. A slight degradation (less than 4%) was observed (NMR and solubility) when a temperature of 120° C. was used (melting point of 174° C., mass enthalpy of 39.7 J/g) under air atmosphere.

In brackets after ≈: the same amount, converted by molar mass. A value given as a limit tells only on which side of the number the result lay.

In general, Solubility refers to how much of the substance goes into solution per volume. A higher Solubility goes with much dissolved substance. Consider `CC(C)=CCC/C(C)=C/CC/C(C)=C/CN1C(=O)c2cccc(O)c2Nc2c(O)cc(O)cc21` [Form I (MeOH/water)], for which the Solubility in data set [1] was 6.59 µg/mL (≈ 14.2 µM). For the same compound, the “Decomposition on transformation to Form III” value in data set [2] is recorded as “without observable decomposition”. `CC(C)=CCC/C(C)=C/CC/C(C)=C/CN1C(=O)c2cccc(O)c2Nc2c(O)cc(O)cc21` [Form II (EtOH/water)] had a Solubility in data set [1] of 3.98 µg/mL (≈ 8.6 µM). Besides, the “Decomposition on transformation to Form III” value in data set [2] is given as “without observable decomposition”.

Compound `CC(C)=CCC/C(C)=C/CC/C(C)=C/CN1C(=O)c2cccc(O)c2Nc2c(O)cc(O)cc21` [Form III (annealed Form I)] yielded a Solubility in data set [1] of 0.65 µg/mL (≈ 1.41 µM). For `CC(C)=CCC/C(C)=C/CC/C(C)=C/CN1C(=O)c2cccc(O)c2Nc2c(O)cc(O)cc21` [Form III (annealed Form II)], the Solubility entry in data set [1] was “<LOD*”. Take `CC(C)=CCC/C(C)=C/CC/C(C)=C/CN1C(=O)c2cccc(O)c2Nc2c(O)cc(O)cc21` [Form III]: the “Relative (thermodynamic) stability judged from solubility” value in data set [1] (from Table 3 water solubility) is “clearly more stable than crystal Forms I and II”.

For the origin of these results see patent US20090186878A1, “CRYSTALLINE FORMS OF A FARNESYL DIBENZODIAZEPINONE” (THALLION PHARMACEUTICALS INC., priority 2006, published 2009).
